# Experimental data from US20250340557A1, “PYRIMIDINE DERIVATIVE” (ASKA PHARMACEUTICAL CO., LTD., priority 2022, published 2025).
# Target: T1, human mPGES-1 (Homo sapiens, UniProt O14684)
# T1 construct: made in house; host or cells: COS-1 cells (transient transfection; microsomal fraction used as enzyme)
# T1 sequence (O14684 1-152): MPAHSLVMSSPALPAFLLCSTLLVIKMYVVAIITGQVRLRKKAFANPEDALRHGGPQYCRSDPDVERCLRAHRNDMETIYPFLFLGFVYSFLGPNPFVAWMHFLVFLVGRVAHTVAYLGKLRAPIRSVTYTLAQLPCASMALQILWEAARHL
# Experiment: Test for mPGES-1 inhibitory activity (microsomal enzyme, PGE2 EIA)
# Type: biochemical
# Conditions: microsomes from COS-1 cells transfected with human mPGES-1 cDNA; substrate PGH2 1 μM; 4° C., 4 minutes; PGE2 measured by EIA; read-out: h mPGES1 IC50
# In short: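 Enzyme source was microsomes from COS-1 cells transiently expressing human mPGES-1, in sodium phosphate pH 7.2 with 2.5 mM GSH, 1 mM EDTA and 2% DMSO final. After a 15 min preincubation with compound at 4 °C, 1 μM PGH2 (final) reacted for 4 min at 4 °C.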
row,IC50 [nM],SMILES
1,< 1,"O=C(NCc1ccc(C(F)(F)F)c(-c2nc(C(F)(F)F)cc(=O)[nH]2)c1F)C1CCN(c2cccc(Cl)c2)CC1 [Example 62, 1-(3-chlorophenyl)-N-{2-fluoro-3-[6-oxo-4-(trifluoromethyl)-1,6-dihydropyrimidin-2-yl]-4-(trifluoromethyl)benzyl}piperidine-4-carboxamide]"
2,< 1,"O=C(NCc1ccc(C(F)(F)F)c(-c2nc(C(F)(F)F)cc(=O)[nH]2)c1F)C1CCN(c2ccc(Cl)cc2)CC1 [Example 64, 1-(4-chlorophenyl)-N-{2-fluoro-3-[6-oxo-4-(trifluoromethyl)-1,6-dihydropyrimidin-2-yl]-4-(trifluoromethyl)benzyl}piperidine-4-carboxamide]"
3,< 1,"O=C(NCc1ccc(C(F)(F)F)c(-c2nc(C(F)(F)F)cc(=O)[nH]2)c1F)C1CCN(c2ccc(Cl)c(Cl)c2)CC1 [Example 66, 1-(3,4-dichlorophenyl)-N-{2-fluoro-3-[6-oxo-4-(trifluoromethyl)-1,6-dihydropyrimidin-2-yl]-4-(trifluoromethyl)benzyl}piperidine-4-carboxamide]"
4,8.4,"O=C(NCc1ccc(C(F)(F)F)c(-c2nc(C(F)(F)F)cc(=O)[nH]2)c1F)C1CCN(c2cccc(Cl)c2Cl)CC1 [Example 69, 1-(2,3-dichlorophenyl)-N-{2-fluoro-3-[6-oxo-4-(trifluoromethyl)-1,6-dihydropyrimidin-2-yl]-4-(trifluoromethyl)benzyl}piperidine-4-carboxamide]"
5,10,"O=C(NCc1ccc(C(F)(F)F)c(-c2nc(C(F)(F)F)cc(=O)[nH]2)c1F)C1CCN(c2ccc(Cl)cc2F)CC1 [Example 70, 1-(4-chloro-2-fluorophenyl)-N-{2-fluoro-3-[6-oxo-4-(trifluoromethyl)-1,6-dihydropyrimidin-2-yl]-4-(trifluoromethyl)benzyl}piperidine-4-carboxamide]"
6,4.4,"Cc1nc(-c2c(C(F)(F)F)ccc(CNC(=O)C3CCN(c4ccc(Cl)c(Cl)c4)CC3)c2F)[nH]c(=O)c1F [Example 73, 1-(3,4-dichlorophenyl)-N-[2-fluoro-3-(5-fluoro-4-methyl-6-oxo-1,6-dihydropyrimidin-2-yl)-4-(trifluoromethyl)benzyl]piperidine-4-carboxamide]"
7,31,"Cc1cc(=O)[nH]c(-c2c(C(F)(F)F)ccc(CNC(=O)C3CCN(c4ccc(Cl)cc4)CC3)c2F)n1 [Example 76, 1-(4-chlorophenyl)-N-[2-fluoro-3-(4-methyl-6-oxo-1,6-dihydropyrimidin-2-yl)-4-(trifluoromethyl)benzyl]piperidine-4-carboxamide]"
8,16,"Cc1nc(-c2c(C(F)(F)F)ccc(CNC(=O)C3CCN(c4ccc(Cl)cc4)CC3)c2F)[nH]c(=O)c1F [Example 77, 1-(4-chlorophenyl)-N-[2-fluoro-3-(5-fluoro-4-methyl-6-oxo-1,6-dihydropyrimidin-2-yl)-4-(trifluoromethyl)benzyl]piperidine-4-carboxamide]"
9,56,"CCc1nc(-c2c(C(F)(F)F)ccc(CNC(=O)C3CCN(c4ccc(Cl)cc4)CC3)c2F)[nH]c(=O)c1F [Example 79, 1-(4-chlorophenyl)-N-[3-(4-ethyl-5-fluoro-6-oxo-1,6-dihydropyrimidin-2-yl)-2-fluoro-4-(trifluoromethyl)benzyl]piperidine-4-carboxamide]"
10,5,"O=C(NCc1ccc(C(F)(F)F)c(-c2nc(C(F)(F)F)cc(=O)[nH]2)c1F)C1CCN(c2ccc(Cl)c(F)c2)CC1 [Example 81, 1-(4-chloro-3-fluorophenyl)-N-{2-fluoro-3-[6-oxo-4-(trifluoromethyl)-1,6-dihydropyrimidin-2-yl]-4-(trifluoromethyl)benzyl}piperidine-4-carboxamide]"
11,8.1,"O=C(NCc1ccc(C(F)(F)F)c(-c2nc(C(F)(F)F)cc(=O)[nH]2)c1F)C1CCN(c2cc(Cl)cc(Cl)c2)CC1 [Example 82, 1-(3,5-dichlorophenyl)-N-{2-fluoro-3-[6-oxo-4-(trifluoromethyl)-1,6-dihydropyrimidin-2-yl]-4-(trifluoromethyl)benzyl}piperidine-4-carboxamide]"
12,7.1,"COc1cc(N2CCC(C(=O)NCc3ccc(C(F)(F)F)c(-c4nc(C(F)(F)F)cc(=O)[nH]4)c3F)CC2)ccc1Cl [Example 83, 1-(4-chloro-3-methoxyphenyl)-N-{2-fluoro-3-[6-oxo-4-(trifluoromethyl)-1,6-dihydropyrimidin-2-yl]-4-(trifluoromethyl)benzyl}piperidine-4-carboxamide]"
13,5.2,"O=C(NCc1ccc(C(F)(F)F)c(-c2nc(C(F)F)cc(=O)[nH]2)c1F)C1CCN(c2ccc(Cl)c(Cl)c2)CC1 [Example 84, 1-(3,4-dichlorophenyl)-N-{3-[4-(difluoromethyl)-6-oxo-1,6-dihydropyrimidin-2-yl]-2-fluoro-4-(trifluoromethyl)benzyl}piperidine-4-carboxamide]"
14,< 1,"Cc1cc(=O)[nH]c(-c2c(C(F)(F)F)ccc(CNC(=O)C3CCN(c4ccc(Cl)c(Cl)c4)CC3)c2F)n1 [Example 86, 1-(3,4-dichlorophenyl)-N-[2-fluoro-3-(4-methyl-6-oxo-1,6-dihydropyrimidin-2-yl)-4-(trifluoromethyl)benzyl]piperidine-4-carboxamide]"
15,39,"Cc1cc(=O)[nH]c(-c2c(C(F)(F)F)ccc(CNC(=O)C3CCN(c4ccc(OC(F)(F)F)cc4)CC3)c2F)n1 [Example 87, N-[2-fluoro-3-(4-methyl-6-oxo-1,6-dihydropyrimidin-2-yl)-4-(trifluoromethyl)benzyl]-1-[4-(trifluoromethoxy)phenyl]piperidine-4-carboxamide]"

# Continued, molecule first:
row,SMILES,IC50 [nM]
1,"O=C(NCc1ccc(C(F)(F)F)c(-c2nc(C(F)(F)F)cc(=O)[nH]2)c1F)C1CCN(c2ccc(C(F)(F)F)cc2)CC1 [Example 63, N-{2-fluoro-3-[6-oxo-4-(trifluoromethyl)-1,6-dihydropyrimidin-2-yl]-4-(trifluoromethyl)benzyl}-1-[4-(trifluoromethyl)phenyl]piperidine-4-carboxamide]",1.1
2,"O=C(NCc1ccc(C(F)(F)F)c(-c2nc(C(F)(F)F)cc(=O)[nH]2)c1F)C1CCN(c2cccc(C(F)F)c2)CC1 [Example 65, 1-[3-(difluoromethyl)phenyl]-N-{2-fluoro-3-[6-oxo-4-(trifluoromethyl)-1,6-dihydropyrimidin-2-yl]-4-(trifluoromethyl)benzyl}piperidine-4-carboxamide]",< 1
3,"O=C(NCc1ccc(C(F)(F)F)c(-c2nc(C(F)(F)F)cc(=O)[nH]2)c1F)C1CCN(c2cccc(C(F)(F)F)c2)CC1 [Example 67, N-{2-fluoro-3-[6-oxo-4-(trifluoromethyl)-1,6-dihydropyrimidin-2-yl]-4-(trifluoromethyl)benzyl}-1-[3-(trifluoromethyl)phenyl]piperidine-4-carboxamide]",< 1
4,"O=C(NCc1ccc(C(F)(F)F)c(-c2nc(C(F)(F)F)cc(=O)[nH]2)c1F)C1CCN(c2ccc(OC(F)(F)F)cc2)CC1 [Example 68, N-{2-fluoro-3-[6-oxo-4-(trifluoromethyl)-1,6-dihydropyrimidin-2-yl]-4-(trifluoromethyl)benzyl}-1-[4-(trifluoromethoxy)phenyl]piperidine-4-carboxamide]",< 1
5,"O=C(NCc1ccc(C(F)(F)F)c(-c2nc(C(F)(F)F)cc(=O)[nH]2)c1F)C1CCN(c2ccc(OC(F)F)cc2)CC1 [Example 71, 1-[4-(difluoromethoxy)phenyl]-N-{2-fluoro-3-[6-oxo-4-(trifluoromethyl)-1,6-dihydropyrimidin-2-yl]-4-(trifluoromethyl)benzyl}piperidine-4-carboxamide]",10
6,"Cc1nc(-c2c(C(F)(F)F)ccc(CNC(=O)C3CCN(c4ccc(OC(F)(F)F)cc4)CC3)c2F)[nH]c(=O)c1F [Example 72, N-[2-fluoro-3-(5-fluoro-4-methyl-6-oxo-1,6-dihydropyrimidin-2-yl)-4-(trifluoromethyl)benzyl]-1-[4-(trifluoromethoxy)phenyl]piperidine-4-carboxamide]",< 1
7,"O=C(NCc1ccc(C(F)(F)F)c(-c2nc(C(F)(F)F)cc(=O)[nH]2)c1F)C1CCN(c2cccc(OC(F)(F)F)c2)CC1 [Example 74, N-{2-fluoro-3-[6-oxo-4-(trifluoromethyl)-1,6-dihydropyrimidin-2-yl]-4-(trifluoromethyl)benzyl}-1-[3-(trifluoromethoxy)phenyl]piperidine-4-carboxamide]",< 1
8,"N#Cc1ccc(N2CCC(C(=O)NCc3ccc(C(F)(F)F)c(-c4nc(C(F)(F)F)cc(=O)[nH]4)c3F)CC2)c(Cl)c1 [Example 75, 1-(2-chloro-4-cyanophenyl)-N-{2-fluoro-3-[6-oxo-4-(trifluoromethyl)-1,6-dihydropyrimidin-2-yl]-4-(trifluoromethyl)benzyl}piperidine-4-carboxamide]",< 1
9,"CCc1nc(-c2c(C(F)(F)F)ccc(CNC(=O)C3CCN(c4ccc(OC(F)(F)F)cc4)CC3)c2F)[nH]c(=O)c1F [Example 80, N-[3-(4-ethyl-5-fluoro-6-oxo-1,6-dihydropyrimidin-2-yl)-2-fluoro-4-(trifluoromethyl)benzyl]-1-[4-(trifluoromethoxy)phenyl]piperidine-4-carboxamide]",22
10,"O=C(NCc1ccc(C(F)(F)F)c(-c2nc(C(F)F)cc(=O)[nH]2)c1F)C1CCN(c2ccc(OC(F)(F)F)cc2)CC1 [Example 85, N-{3-[4-(difluoromethyl)-6-oxo-1,6-dihydropyrimidin-2-yl]-2-fluoro-4-(trifluoromethyl)benzyl}-1-[4-(trifluoromethoxy)phenyl]piperidine-4-carboxamide]",0.61
